In US6489327B1, “Tryptase inhibitors” (Max-Planck-Gesellschaft zur Fordrungder Wisenschaften, e.V., priority 1998, dated 2002):
Counter-ions that a name gives are not always drawn.

Target: human tryptase
Experiment: Inhibition of human tryptase: apparent dissociation constant Kiapp, chromogenic substrate tos-Gly-Pro-Arg-pNA
Type: biochemical
Conditions: apparent dissociation constant in presence of substrate; human tryptase from lung tissue, 50 μg of heparin/ml
From the text: The documented pathophysiological effects of mast cell tryptase are brought about directly by the enzymic activity of the protease. Accordingly, they are reduced or blocked by inhibitors which inhibit the enzymatic activity of the tryptase. The equilibrium dissociation constant Ki of the enzyme-inhibitor complex is a suitable measure of the affinity of a reversible inhibitor for the target protease. This Ki value can be determined by measuring the effect of the inhibitor on the tryptase-induced cleavage of a chromogenic peptide-p-nitroanilide substrate or a fluorogenic peptide-aminomethylcoumarin substrate.
The dissociation constants of the tryptase-inhibitor complexes are determined under equilibrium conditions in accordance with the general recommendations of Bieth (Bieth J G, Pathophysiological interpretation of kinetic constants of protease inhibitors, Bull. Europ. Physiopath. Resp. 16:183-195, 1980) and the methods of Sommerhoff et al. (Sommerhoff C P et al., A. Kazal-type inhibitor of human mast cell tryptase: Isolation from the medical leech Hirudo medicinalis, characterization, and sequence analysis, Biol. Chem. Hoppe-Seyler 375: 685-694, 1994).
Human tryptase is prepared in a pure state from lung tissue; the specific activity of the isolated protease, determined by means of titration, is normally 85% of the theoretical value. Constant quantities of tryptase are incubated with increasing quantities of the inhibitors in the presence of 50 μg of heparin/ml for stabilizing the protease. After the equilibrium has been established between the reaction partners, the remaining enzyme activity is determined after adding the peptide-p-nitroanilide substrate tos-Gly-Pro-Arg-pNA, the cleavage of which is monitored at 405 nm over a period of 3 min. Alternatively, the residual enzymic activity can also be determined using fluorogenic substrates. The apparent dissociation constants Kiapp (i.e. in the presence of substrate) are subsequently ascertained by nonlinear regression by fitting the enzyme rates to the general equation for reversible inhibitors (Morrison J F, Kinetics of the reversible inhibition of enzyme-catalysed reactions by tight-binding inhibitors, Biochim. Biophys. Acta 185, 269-286, 1969):
V1/V0=1−{Et+lt+Kiapp−[(Et+lt+Kiapp)^2−4Etlt]^½}/2Et
In this equation, V1 and V0 are the rates in the presence and absence of the inhibitor, respectively, and Et and lt are the concentrations of the tryptase and of the inhibitor.
The apparent dissociation constants which were determined for the compounds according to the invention are given in Table A below, in which the numbers of the compounds correspond to the numbers of the compounds in the examples.

Ki	SMILES
200 nM	CC(C)(c1ccc(OCC(=O)NCc2ccc(NC(=N)N)cc2)cc1)c1ccc(OCC(=O)NCc2ccc(NC(=N)N)cc2)cc1 [Compound 31, 2,2-Bis-[4-(4-guanidinylbenzylamino)carbonylmethoxyphenyl]propane dihydroacetate]
2000 nM	CC(C)(c1ccc(OCC(=O)NCC(=O)NCCCCN)cc1)c1ccc(OCC(=O)NCC(=O)NCCCCN)cc1 [Compound 34, 2,2-Bis-[4-(10-amino-3,6-diaza-2,5-dioxodecyloxy)-phenyl]propane dihydrochloride]
22000 nM	NCC1CCC(C(=O)N2CCN(C(=O)Nc3ccc(Oc4ccc(NC(=O)N5CCN(C(=O)C6CCC(CN)CC6)CC5)cc4)cc3)CC2)CC1 (stereo not drawn) [Compound 17, Bis{4-[4-(4-aminomethyl)cyclohexanoylpiperazin-1-yl]-carbonyl}-4,4′-diaminodiphenyl ether dihydrochloride]
100 nM	NCc1cccc(C(=O)N2CCN(C(=O)Nc3ccc(Oc4ccc(NC(=O)N5CCN(C(=O)c6cccc(CN)c6)CC5)cc4)cc3)CC2)c1 [Compound 21, Bis{4-[4-(3-aminomethyl)benzoylpiperazin-1-yl]-carbonyl}-4,4′-diaminodiphenyl ether dihydrochloride]
30 nM	NCc1cccc(C(=O)NC2CCN(C(=O)c3cccc(C(=O)N4CCC(NC(=O)c5cccc(CN)c5)CC4)n3)CC2)c1 [Compound 11, Pyridine-2,6-dicarbobis[4-(3-aminomethylbenzoylamino)-1-piperidide]]
800 nM	NCC1CCC(C(=O)NC2CCN(C(=O)NC3CCC(CC4CCC(NC(=O)N5CCC(NC(=O)C6CCC(CN)CC6)CC5)CC4)CC3)CC2)CC1 (stereo not drawn) [Compound 23, Di{4-[4-(4-aminomethyl)cyclohexanoylamino]piperidin-1-ylcarbamoyl}cyclohexylmethane dihydrochloride]
3000 nM	NCc1cccc(C(=O)N2CCN(C(=O)c3cccc(C(=O)N4CCN(C(=O)c5cccc(CN)c5)CC4)n3)CC2)c1 [Compound 1, Pyridine-2,6-dicarbobis[4-(3-aminomethylbenzoyl)-1-piperazide]]
3000 nM	NCC1CCC(C(=O)NC2CCN(C(=O)c3cccc(C(=O)N4CCC(NC(=O)C5CCC(CN)CC5)CC4)n3)CC2)CC1 (stereo not drawn) [Compound 15, Pyridine-2,6-dicarbobis[4-(4-aminomethylcyclohexylcarbonylamino)-1-piperidide]]

SMILES	Ki
CC(C)(c1ccc(OC(=O)N2CCN(C(=O)NCc3ccc(CN)cc3)CC2)cc1)c1ccc(OC(=O)N2CCN(C(=O)NCc3ccc(CN)cc3)CC2)cc1 [Compound 36, 2,2-Bis-{4-[4-(4-aminomethylbenzylcarbamoyl)-1-piperazinylcarbonyloxy]phenyl}propane dihydrochloride]	28 nM
